“And” between values parts separate entries of the source, which are not always exact repeats. Identical values can stand only once. “Also recorded” adds a separate entry of the source.
Assays:
[1] = test system: rabbits; test: Intraocular pressure (IOP) after topical ocular dosing in rabbits; assay type: in vivo, rabbit; settings: for Ave OS 2 hpt IOP: left eye; for Ave OS 2 hpt IOP / Avg OD 2 hpt IOP: 2 hours after dosing
Procedure: The IOP was assessed as a component of clinical outcomes for the animals in the studies described herein. The table below represents the effect of R-DOI on IOP 2 hours after dosing with the indicated concentration of R-DOI. Eyes were individually assessed and are indicated as IOP for the right (OD) or left (OS) eye.
Each eye of each rabbit was then assessed for initial IOP by tonometer.
IOP determinations were made at 30 minutes, 1 hour, 1.5 hours and 2.5 hours-eyes were examined closely for any adverse effects during these IOP measures.
(§1) 3 days post treatment at the same time initial measures were made, IOP and tear film production were re-assessed to examine if effects were sustained post 1 treatment.
The IOP was assessed via a TonoVet rebound Tonometer. The tables herein (see, for example, FIG. 4) represent the effect of Compound 1 on IOP at time intervals within the first 2.5 hours after dosing with 0.01% Compound 1 in BSS with 0.5% CMC. Eyes were individually assessed and are indicated as IOP for the right (OD) or left (OS) eye. 3 days post treatment eyes were reassessed for IOP changes to see if the effects of treatment lasted over a prolonged period.
(§2) • Rabbits were assessed for clinically clear eyes by slit lamp ophthalmic scoring. All eyes of all rabbits were normal. • Each eye of each rabbit was then assessed for initial IOP by tonometer. • Each eye of each rabbit was assessed for tear film production by Schirmer's Tear Flo Strips at a 30 second interval of analysis. Tear measures were evaluated by a digital caliper to determine mm of tears collected. • Rabbits were sorted into two groups attempting to balance IOP numbers (one higher, one lower animal per group). • Following animals were treated with 50 μL of Control ophthalmic BSS/0.5% CMC or 0.01% R-DOI HCl in ophthalmic BSS/0.5% CMC. • Any apparent behavioral changes were continuously monitored over the next 2.5 hours. • IOP determinations were made at 30 minutes, 1 hour, 2 hours and 3 hours, 5 hours, 7 hours and 24 hours-eyes were examined closely for any adverse effects during these IOP measures. • 7 hours post treatment when IOP returned to control levels tear film production was assessed (see, for example, FIG. 9).
The IOP was assessed via a TonoVet rebound Tonometer. The tables herein (see, for example, FIGS. 10-11) represents the effect of R-DOI on IOP at the defined time intervals Eyes were individually assessed and are indicated as IOP for the right (OD) or left (OS) eye.

[2] = test system: rabbits; test: Tear film production by Schirmer's Tear Flo Strips in rabbits; assay type: in vivo, rabbit
Procedure: Each eye of each rabbit was assessed for tear film production by Schirmer's Tear Flo Strips at a 30 second interval of analysis. Tear measures were evaluated by a digital caliper to determine mm of tears collected.
as §1
Effects of Compound 1 on Tear Production: Current IOP lowering glaucoma drugs eventually have effects on tear production resulting in dry eye conditions. Further, there are additional associations between dry eye and glaucoma, with co-incidence of the two conditions quite common. […] Selective 5-HT agonists/antagonists can reverse symptoms of dry eye-a very large ophthalmic market. The effects of Compound 1 on tear film production (see, for example, FIG. 6 panels A-D) were therefore assessed by a Schirmer's Tear Flo strip and measured using a digital micrometer caliper.
as §2
Effects of R-DOI on Tear Production: Current IOP lowering glaucoma drugs eventually have effects on tear production resulting in dry eye conditions. Further, there are additional associations between dry eye and glaucoma, with co-incidence of the two conditions common. […] Selective 5-HT agonists/antagonists can reverse symptoms of dry eye-a very large ophthalmic market. The effects of R-DOI on tear film production were therefore assessed by a Schirmer's Tear Flo strip and measured using a digital micrometer caliper.

[3] = Solubility in ophthalmic eye drop (BSS, 0.5% CMC); assay type: physicochemical; settings: 0.1% (5 mg/5 mL) in BSS with 0.5% CMC, pH 7.0
Procedure: Non-Limiting, Exemplary Findings Discussed within: • The NCE Compound 1 was formulated within an ophthalmic eye drop with BSS and 0.5% carboxymethylcellulose (CMC) at percentages of 0.1% (5 mg/5 ml) and lower with a pH of 7.0.
• The R-DOI HCl was formulated within an ophthalmic eye drop with BSS and 0.5% carboxymethylcellulose (CMC) at percentages of 0.1% (5 mg/5 mL) and lower with a pH of 7.0.

[4] = 0.01% single dose, group E5/E6, 2 h
[5] = 0.1% single dose, group E3/E4, 2 h

Structure (SMILES): COc1cc(C[C@@H](C)N)c(OC)cc1I [R-DOI, (R)-1-(2,5-dimethoxy-4-iodophenyl)-2-aminopropane]
- time post administration by which a significant decrease in IOP was shown ([1]; 0.01% single dose): ≤ 30 min
- whether the decrease in intraocular pressure was sustained ([1]; 0.01% single dose, IOP followed to 24 hours): not sustained following 3 hours post treatment
- Avg % change Group [1, 4]: −53.33%
- Avg Delta Eye Group [1, 4]: −7.75
- Ave OS 2 hpt IOP ([1]; 0.01% single dose): 13.50 and 7.00
- Avg OD 2 hpt IOP ([1]; 0.01% single dose, right eye): 12.25 and 7.00
- % Change (OD) ([1]; 0.01% single dose, right eye, 2 h vs starting IOP): −56.67% and −50.00%
- Avg % change Group [1, 5]: −30.77%
- Avg Delta Eye Group [1, 5]: −4.94
- Ave OS 2 hpt IOP ([1]; 0.1% single dose): 13.25 and 9.00
- Avg OD 2 hpt IOP ([1]; 0.1% single dose, right eye): 11.50 and 13.25
- effect on intraocular pressure ([1]; single topical ocular dose): decreased IOP with the greatest reduction of IOP observed for the lower R-DOI dosages; also recorded: acutely decreased intraocular pressure with a single dose
- average increase in tear film production ([2]; 0.01% single dose, 7 h post treatment): 2.27 mm
- tear production as measured by Schirmer's test ([2]; topical ocular dose): increased tear production relative to initial and control treatment; also recorded: significant increase in tear production
- Solubility of the compound [3]: good with no remaining precipitates

From patent US20260240792A1, “COMPOSITIONS FOR TREATING 5-HT2 CONDITIONS AND METHODS OF USING THE SAME” (Board of Supervisors of Louisiana State University and …, priority 2022, published 2026)
